The text below walks through data of PMC5520944 (Cell Death & Disease, 2017).

Common to all, as to assay: cells
In one test the test system is Molm13. The arrangement: species or system Jurkat FADD-/-, HT-29, MV4-11 or Molm13; protection from induced necroptosis, cell death by PI staining and flow cytometry. Conditions: Homo sapiens, MOLM-13; BV6 + zVAD; inhibition of induced cell death. As to the method: (§1) Figure 2 Sorafenib inhibits TNF-induced RIPK1-dependent cell death in both murine and human cell lines and rescues AML cells from Smac mimetic-induced necroptosis. […] (c,d) HT-29 and Jurkat FADD−/− cells were pretreated for 1 h with DMSO, Nec-1 or Sorafenib (concentrations as indicated) and stimulated for 6 h with 30 ng/ml hTNF, 1 μM BV6 and 30 μM zVAD (HT-29) or stimulated for 10 h with 100 ng/ml hTNF (Jurkat FADD−/−). (a-d) Data were normalized to DMSO-treated control cells and represent the mean value±S.E.M. of three independent experiments. Toxic concentrations were removed from the analysis. L929sAhFas and MEF cells were stained with Hoechst and PI and percentage PI-positive nuclei was determined using high-content image analysis (BD pathway Bioimager). For HT-29 and Jurkat FADD−/− cells, cell death was determined by PI staining and flow cytometry. […] Cell death in AML cells was determined by PI staining and flow cytometry. Mean and S.D. of three independent experiments performed in triplicate are shown Supplementary materials and methods Immunoblotting. After treatments, cells were washed twice with PBS and lysed with Laemmli buffer (2x) directly or with NP-40 lysis buffer (150 mM NaCl, 1% NP-40, 10% glycerol, 10 mM Tris-HCl pH 8) supplemented with EDTA-free protease inhibitor cocktail tablets (Roche Diagnostics, Basel, Switzerland, #11873580001) and phosphatase inhibitor cocktail tablets (Roche Diagnostics, #04906837001). After lysis with NP-40 lysis buffer, lysates were kept 10 minutes on ice and centrifugated in a microcentrifuge (10 min, 13.000 rpm, 4°C). Supernatant was used for SDS-PAGE and immunoblotting. FACS analysis. FACS analysis was used to measure dying HT-29, Jurkat FADD-/- and AML cells. Treated HT-29 cells were harvested, washed with PBS and incubated with Annexin V binding buffer (BD Biosciences, 556454) containing 7-AAD and Annexin V-FITC for 15 min according to the manufacturer’s protocol. FACSCalibur^TM Flow Cytometer (BD Biosciences) and CellQuest Pro software were used to perform experiments and analyze data respectively.

A further test deals with MV4-11. Details: species or system Jurkat FADD-/-, HT-29, MV4-11 or Molm13; protection from induced necroptosis, cell death by PI staining and flow cytometry. Conditions: Homo sapiens, BV6 + zVAD, inhibition of induced cell death. As for the experimental part:
as §1

The test system of another test is MEF. Details: species or system L929sAhFas or MEF; protection from TNF-induced cell death, percentage PI-positive nuclei by high-content imaging. To be noted: Mus musculus. As to the method: (c,d) HT-29 and Jurkat FADD−/− cells were pretreated for 1 h with DMSO, Nec-1 or Sorafenib (concentrations as indicated) and stimulated for 6 h with 30 ng/ml hTNF, 1 μM BV6 and 30 μM zVAD (HT-29) or stimulated for 10 h with 100 ng/ml hTNF (Jurkat FADD−/−). (a-d) Data were normalized to DMSO-treated control cells and represent the mean value±S.E.M. of three independent experiments. Toxic concentrations were removed from the analysis. L929sAhFas and MEF cells were stained with Hoechst and PI and percentage PI-positive nuclei was determined using high-content image analysis (BD pathway Bioimager). For HT-29 and Jurkat FADD−/− cells, cell death was determined by PI staining and flow cytometry. […] Cell death in AML cells was determined by PI staining and flow cytometry. […] Smac mimetic BV6[34] instead of TAK1i was used as a sensitizer for testing of mouse embryonic fibroblasts (MEF) and human cell lines. […] Since Sorafenib is used to treat AML,[27] we also included two AML cell lines to investigate whether it alters the sensitivity of these cells to necroptotic stimuli (BV6 in the presence of zVAD-fmk).[34]

Test [1] concerns L929sAhFas. The arrangement: species or system L929sAhFas or MEF; protection from TNF-induced cell death, percentage PI-positive nuclei by high-content imaging. Conditions: mTNF; inhibition of induced cell death. As for the experimental part:
Figure 2 Sorafenib inhibits TNF-induced RIPK1-dependent cell death in both murine and human cell lines and rescues AML cells from Smac mimetic-induced necroptosis. […] (c,d) HT-29 and Jurkat FADD−/− cells were pretreated for 1 h with DMSO, Nec-1 or Sorafenib (concentrations as indicated) and stimulated for 6 h with 30 ng/ml hTNF, 1 μM BV6 and 30 μM zVAD (HT-29) or stimulated for 10 h with 100 ng/ml hTNF (Jurkat FADD−/−). (a-d) Data were normalized to DMSO-treated control cells and represent the mean value±S.E.M. of three independent experiments. Toxic concentrations were removed from the analysis. L929sAhFas and MEF cells were stained with Hoechst and PI and percentage PI-positive nuclei was determined using high-content image analysis (BD pathway Bioimager). For HT-29 and Jurkat FADD−/− cells, cell death was determined by PI staining and flow cytometry. […] Cell death in AML cells was determined by PI staining and flow cytometry. Mean and S.D. of three independent experiments performed in triplicate are shown To confirm the inhibition of TNF-induced necroptosis by Sorafenib, we tested a panel of murine (L929sAhFas and MEF) and human cell lines (HT-29, Jurkat FADD^-/-, and two AML cell lines MV4-11 and Molm13). Smac mimetic BV6[34] instead of TAK1i was used as a sensitizer for testing of mouse embryonic fibroblasts (MEF) and human cell lines. […]

Test [2] has as its system L929sAhFas. Details: high-content necroptosis screen, percentage PI-positive nuclei as percent of DMSO plus stimulus control. To be noted: mTNF-induced cell death, validation screen; read-out: Validation screen IC50 (µM) (TNF). The text has this: To identify novel inhibitors or regulators of necroptosis, 500 small compounds from libraries targeting autophagy, kinases, phosphatases, proteases and redox balance were screened for their ability to block TNF-induced necroptosis in murine L929sAhFas cells. Three conditions were used to induce necroptosis in L929 cells: TNF alone, TNF+TAK1 inhibitor (TAK1i) and TNF+zVAD-fmk, a pan-caspase inhibitor. Inhibition of TAK1 or caspases sensitizes to necroptosis.[13], [32] Necroptosis, measured as the percentage of PI-positive nuclei normalized to the plate-specific DMSO control, was determined for each compound (Supplementary Figure 1A). Z’ values for the TNF- and TNF+TAK1i-induced cell death assay were 0.498 and 0.919, respectively (Supplementary Figures 2A and B), indicating good assay performance. Sorafenib was identified as an effective inhibitor of both TNF- and TNF+TAK1i-induced necroptosis (Figure 1a). […] In an independent screening with 437 FDA-approved drugs and TNF+zVAD-fmk as necroptosis trigger in L929 cells (Supplementary Figure 1B), Sorafenib was also shown to be a potent inhibitor (Figure 1b). […] After compound treatment, L929sAhFas (a) or L929 (b) cells were stimulated with mTNF (T), mTNF+Tak1i (TiT) or mTNF+zVAD (zVT) (Supplementary Figure 1A and B). (a) Cell death percentage (% PI-positive nuclei) or cell loss was calculated as percent of control (DMSO+stimulus). Green points marked by the green dotted line represent a selection of kinase inhibitors from the screening on L929sAhFas cells (Supplementary Table 1), that are only slightly protective in the TNF-stimulated condition. (b) Cell loss (luminescence-based readout for ATP) was calculated as percent of control (DMSO+stimulus). […] In stimulated conditions, % PI-positive nuclei was determined as % of DMSO control. Data represent mean values±S.E.M. of two independent experiments. Cells were stained with Hoechst and PI and percentage PI-positive nuclei was determined using high-content image analysis (BD pathway Bioimager). (d) L929sAhFas cells were treated with Sorafenib (concentration as indicated) for 24 h. Then, stimulus was removed, 50 cells/condition seeded and colonies counted with crystal violet staining after 10 days incubation. Quantification was performed using ImageJ. n=2, a representative experiment is shown Legends supplementary figures Supplementary Figure S1. Schemes of workflow screening assays in L929 cell lines. (A) Scheme of the workflow of a high-content screening assay on L929sAhFas cells using mTNF (T) and mTNF+Tak1i ((5Z)-7-Oxozeaenol) (TiT) to induce necroptotic cell death. Nec-1 and zVAD-fmk were used as protective and sensitizing benchmarks, respectively, on all plates. (B) Scheme of the workflow of a CellTiter-Glo luminescent cell viability screening assay on L929 cells using mTNF+zVAD (zVT) to induce necroptotic cell death. Supplementary Figure S2. Z’ calculation for cell death screening assays in L929 cells. (A) Z’ calculation for cell death screening assay (Fig. 1A) in mTNF-stimulated L929sAhFas cells. (B) Z’ calculation for cell death screening assay (Fig. 1A) in L929sAhFas cells stimulated with mTNF + Taki.

The test system of test [3] is L929sAhFas. The arrangement: high-content necroptosis screen, percentage PI-positive nuclei as percent of DMSO plus stimulus control. The text has this:
To identify novel inhibitors or regulators of necroptosis, 500 small compounds from libraries targeting autophagy, kinases, phosphatases, proteases and redox balance were screened for their ability to block TNF-induced necroptosis in murine L929sAhFas cells. Three conditions were used to induce necroptosis in L929 cells: TNF alone, TNF+TAK1 inhibitor (TAK1i) and TNF+zVAD-fmk, a pan-caspase inhibitor. Inhibition of TAK1 or caspases sensitizes to necroptosis.[13], [32] Necroptosis, measured as the percentage of PI-positive nuclei normalized to the plate-specific DMSO control, was determined for each compound (Supplementary Figure 1A). […] After compound treatment, L929sAhFas (a) or L929 (b) cells were stimulated with mTNF (T), mTNF+Tak1i (TiT) or mTNF+zVAD (zVT) (Supplementary Figure 1A and B). (a) Cell death percentage (% PI-positive nuclei) or cell loss was calculated as percent of control (DMSO+stimulus). […] (b) Cell loss (luminescence-based readout for ATP) was calculated as percent of control (DMSO+stimulus). […] In stimulated conditions, % PI-positive nuclei was determined as % of DMSO control. Data represent mean values±S.E.M. of two independent experiments. Cells were stained with Hoechst and PI and percentage PI-positive nuclei was determined using high-content image analysis (BD pathway Bioimager). (d) L929sAhFas cells were treated with Sorafenib (concentration as indicated) for 24 h. Then, stimulus was removed, 50 cells/condition seeded and colonies counted with crystal violet staining after 10 days incubation. […] Schemes of workflow screening assays in L929 cell lines. (A) Scheme of the workflow of a high-content screening assay on L929sAhFas cells using mTNF (T) and mTNF+Tak1i ((5Z)-7-Oxozeaenol) (TiT) to induce necroptotic cell death. Nec-1 and zVAD-fmk were used as protective and sensitizing benchmarks, respectively, on all plates. (B) Scheme of the workflow of a CellTiter-Glo luminescent cell viability screening assay on L929 cells using mTNF+zVAD (zVT) to induce necroptotic cell death. Supplementary Figure S2. Z’ calculation for cell death screening assays in L929 cells. (A) Z’ calculation for cell death screening assay (Fig. 1A) in mTNF-stimulated L929sAhFas cells. (B) Z’ calculation for cell death screening assay (Fig. 1A) in L929sAhFas cells stimulated with mTNF + Taki.

Setting [4] is: read-out: cell death TNF/Taki (POC).

Where two headings read alike, the source gives them in different places.

For the molecule `CN1C(=O)NC(Cc2c[nH]c3c(Cl)cccc23)C1=O` (centres unmarked) [Nec-1s], the 50% inhibitory concentration (IC50) in the test with Molm13 was determined as 0.28 ± 0.17 µM; with MV4-11, 0.15 ± 0.01 µM; in the test with MEF (mTNF + BV6 + zVAD, inhibition of induced cell death), 0.63 ± 0.25 µM; with MEF (mTNF + BV6, inhibition of induced cell death) it was 0.38 ± 0.05 µM; in the test on L929sAhFas [1] it was 0.24 ± 0.12 µM.
With `CC(C)(C)c1cc(C=C(C#N)C#N)cc(C(C)(C)C)c1O` [TYRPHOSTIN 9], in the test with L929sAhFas [2], the concentration for half-maximal inhibition (IC50) came to 4.45 µM. Besides, the activity at 10 µM stood at 41.8% in the test with L929sAhFas [3] (read-out: cell death TNF (POC)) and 95.8% in the test on L929sAhFas [3] (setting [4]).
In the same order, the values of `CN(C)c1ccc(/C=C2\C(=O)Nc3ccccc32)cc1` [SU 4312] are 26.4 µM, 69.6% and 96.8%.
In the same order, the values of `N#C/C(=C\c1ccc(O)c(O)c1)C(=O)Nc1ccccc1` [AG-494] are 32.3 µM, 58.6% and 95.8%.
The corresponding values for `COc1cc2ncc(-c3ccccc3)nc2cc1OC` [AG-1296] are 33.2 µM, 77.6% and 93.6%.
As for `N#C/C(=C\c1ccc(O)c(O)c1)C(=O)NCc1ccccc1` [AG-490], the IC50 with L929sAhFas [2] turned out to be 87.3 µM. Also, the activity at 10 µM in the test with L929sAhFas [3] (read-out: cell death TNF (POC)) was 74.2%; with L929sAhFas [3] (setting [4]), 97.3%.
